This passage reports T/C results from PubChem BioAssay AID328 (DTP/NCI, 2004).

“And” between values parts separate entries of the source, which are not always exact repeats. Equal entries are not always repeated. Toxic doses and inconclusive results are not listed.

This assay concerns BDF1 mice, P388 leukemia ip, median survival T/C. Kind of assay: NCI In Vivo Anticancer Drug Screen. Data for tumor model P388 Leukemia (intraperitoneal) in B6D2F1 (BDF1) mice. Particulars: endpoint: median survival time, higher = longer survival. In outline: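 Compound-treated tumour-bearing mice were compared with vehicle-treated controls. Survival was recorded, and the value is the treated-group measurement divided by the control-group measurement (T/C).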

[1] abbreviates: dose: 25.0 mg/kg/injection, schedule: Q04DX003 (ip), vehicle: saline.
The mark [2] stands for this setting: dose: 50.0 mg/kg/injection, schedule: Q04DX003 (ip), vehicle: saline.
Setting [3] is: dose: 100.0 mg/kg/injection, schedule: Q04DX003 (ip), vehicle: saline.
[4] abbreviates: dose: 12.5 mg/kg/injection, schedule: Q04DX003 (ip), vehicle: saline.
The mark [5] stands for this setting: dose: 400.0 mg/kg/injection, schedule: Q04DX003 (ip), vehicle: saline.
Setting [6] is: dose: 50.0 mg/kg/injection, schedule: Q01DX009 (ip), vehicle: saline.
The mark [7] stands for this setting: dose: 100.0 mg/kg/injection, schedule: Q01DX009 (ip), vehicle: saline with Tween-80.
[8] abbreviates: dose: 200.0 mg/kg/injection, schedule: Q01DX009 (ip), vehicle: saline with Tween-80.
Where [9] appears, read: dose: 6.25 mg/kg/injection, schedule: Q01DX009 (ip), vehicle: saline with Tween-80.
[10] abbreviates: dose: 12.5 mg/kg/injection, schedule: Q01DX009 (ip), vehicle: saline with Tween-80.
[11] abbreviates: dose: 25.0 mg/kg/injection, schedule: Q01DX009 (ip), vehicle: saline with Tween-80.
The mark [12] stands for this setting: dose: 100.0 mg/kg/injection, schedule: Q04DX003 (ip), vehicle: saline with Tween-80.
The mark [13] stands for this setting: dose: 200.0 mg/kg/injection, schedule: Q04DX003 (ip), vehicle: saline with Tween-80.
The mark [14] stands for this setting: dose: 400.0 mg/kg/injection, schedule: Q04DX003 (ip), vehicle: saline with Tween-80.
Setting [15] is: dose: 50.0 mg/kg/injection, schedule: Q01DX009 (ip), vehicle: saline with Tween-80.
The mark [16] stands for this setting: dose: 50.0 mg/kg/injection, schedule: Q04DX003 (ip), vehicle: saline with Tween-80.

Turning to `CNC(=S)N/N=C(\C)CSC/C(C)=N/NC(=S)NC`, the T/C by setting is: (dose: 7.5 mg/kg/injection, schedule: Q01DX009 (ip), vehicle: saline with Tween-80) 102 % of control; (dose: 15.0 mg/kg/injection, schedule: Q01DX009 (ip), vehicle: saline with Tween-80) 99 % of control and 122 % of control; (dose: 30.0 mg/kg/injection, schedule: Q01DX009 (ip), vehicle: saline with Tween-80) 102 % of control and 124 % of control; (dose: 60.0 mg/kg/injection, schedule: Q01DX009 (ip), vehicle: saline with Tween-80) 92 % of control.
On to `O=CC(Cl)Cl`, for which the T/C runs as follows: under setting [1], 100 % of control; under setting [2], 95 % of control; under setting [3], 100 % of control.
Regarding `C[C@@H]1C[C@](O)([C@@H](C)Cl)C(=O)O[C@@H]2CCN3CC=C(COC(=O)[C@]1(C)O)[C@H]23`, the T/C (dose: 30.0 mg/kg/injection, schedule: Q01DX010 (ip), vehicle: saline) is 105 % of control.
Turning to `COc1ccc2c3c1OC1C(Oc4nnnn4-c4ccccc4)C=CC4C(C2)N(C)CCC341` (configuration not stated), the T/C was 105 % of control under setting [4]; 113 % of control under setting [1]; 99 % of control under setting [2]; 103 % of control under setting [3]; 103 % of control (dose: 200.0 mg/kg/injection, schedule: Q04DX003 (ip), vehicle: saline); 99 % of control under setting [5].
In the case of `CN(Cc1cnc2nc(N)nc(N)c2n1)c1c(Cl)cc(C(=O)NC(CCC(=O)O)C(=O)O)cc1Br` (configuration not stated), the T/C is 108 % of control (dose: 0.13 mg/kg/injection, schedule: Q04DX003 (ip), vehicle: saline); 116 % of control (dose: 0.19 mg/kg/injection, schedule: Q04DX003 (ip), vehicle: saline); 150 % of control (dose: 1.1 mg/kg/injection, schedule: Q04DX003 (ip), vehicle: saline); 150 % of control (dose: 6.3 mg/kg/injection, schedule: Q04DX003 (ip), vehicle: saline); 213 % of control (dose: 25.0 mg/kg/injection, schedule: Q01DX009 (ip), vehicle: saline); 261 % of control under setting [6]. In addition, the T/C reads like this: under setting [7], 173 % of control; (dose: 100.0 mg/kg/injection, schedule: Q01DX009 (ip), vehicle: saline) 271 % of control; (dose: 115.0 mg/kg/injection, schedule: Q04DX003 (ip), vehicle: saline) 236 % of control; (dose: 175.0 mg/kg/injection, schedule: Q04DX003 (ip), vehicle: saline) 272 % of control; under setting [8], 182 % of control; (dose: 264.0 mg/kg/injection, schedule: Q04DX003 (ip), vehicle: saline) 254 % of control. For the same compound, the T/C reads like this: under setting [5], 272 % of control; (dose: 600.0 mg/kg/injection, schedule: Q04DX003 (ip), vehicle: saline) 90 % of control.
In the case of `CN1CC2([N+](=O)[O-])C=CCC([N+](=O)[O-])(C1)C2` (configuration not stated), the T/C by setting is: (dose: 25.0 mg/kg/injection, schedule: Q01DX009 (ip), vehicle: water) 90 % of control; (dose: 50.0 mg/kg/injection, schedule: Q01DX009 (ip), vehicle: water) 115 % of control; (dose: 100.0 mg/kg/injection, schedule: Q01DX009 (ip), vehicle: water) 108 % of control; (dose: 200.0 mg/kg/injection, schedule: Q01DX009 (ip), vehicle: water) 99 % of control.
As to `COc1cc(/C=C2\SC(=S)N(CCCN3CCOCC3)C2=O)ccc1O`, the T/C (dose: 12.5 mg/kg/injection, schedule: Q01DX009 (ip), vehicle: suspension in saline) is 86 % of control; the T/C (dose: 25.0 mg/kg/injection, schedule: Q01DX009 (ip), vehicle: suspension in saline) is 101 % of control; the T/C (dose: 50.0 mg/kg/injection, schedule: Q01DX009 (ip), vehicle: suspension in saline) is 99 % of control.
As to `CN1C(=O)C(C2(C3C(=O)N(C)C(=O)N(C)C3=O)C(=O)N(C)C(=O)N(C)C2=O)C(=O)N(C)C1=O`, the T/C (dose: 100.0 mg/kg/injection, schedule: Q01DX001 (ip), vehicle: saline with Tween-80) is 108 % of control; the T/C (dose: 200.0 mg/kg/injection, schedule: Q01DX001 (ip), vehicle: saline with Tween-80) is 104 % of control; the T/C (dose: 400.0 mg/kg/injection, schedule: Q01DX001 (ip), vehicle: saline with Tween-80) is 102 % of control.
In the case of `CN(C)c1ccc(N=C2C=CC(=O)C=C2)cc1`, the T/C by setting is: (dose: 3.13 mg/kg/injection, schedule: Q01DX009 (ip), vehicle: saline with Tween-80) 107 % of control; under setting [9], 112 % of control and 117 % of control; under setting [10], 110 % of control and 117 % of control; under setting [11], 118 % of control.
Take `c1ccc(C2OC2(c2ccccc2)c2ccccc2)cc1` (configuration not stated): the T/C was 95 % of control under setting [12], 104 % of control under setting [13] and 95 % of control under setting [14].
On to `C[C@]12CCC(=O)C=C1CC[C@H]1[C@@H]3CC[C@](O)(C(=O)CO)[C@@]3(C)C[C@H](O)[C@@]12F`, for which the T/C was 104 % of control (dose: 12.5 mg/kg/injection, schedule: Q01DX009 (ip), vehicle: Klucel (hydroxypropylcellulose) (HPC)); 109 % of control (dose: 25.0 mg/kg/injection, schedule: Q01DX009 (ip), vehicle: Klucel (hydroxypropylcellulose) (HPC)); 109 % of control (dose: 50.0 mg/kg/injection, schedule: Q01DX009 (ip), vehicle: Klucel (hydroxypropylcellulose) (HPC)); 90 % of control (dose: 100.0 mg/kg/injection, schedule: Q01DX009 (ip), vehicle: Klucel (hydroxypropylcellulose) (HPC)); 120 % of control (dose: 100.0 mg/kg/injection, schedule: Q04DX003 (ip), vehicle: Klucel (hydroxypropylcellulose) (HPC)); 115 % of control (dose: 200.0 mg/kg/injection, schedule: Q04DX003 (ip), vehicle: Klucel (hydroxypropylcellulose) (HPC)). Under “dose: 400.0 mg/kg/injection, schedule: Q04DX003 (ip), vehicle: Klucel (hydroxypropylcellulose) (HPC)”, the T/C is 90 % of control.
As to `CC1(C)CN(Cc2ccccc2)C(C)(C)CN1N`, the T/C runs as follows: under setting [9], 97 % of control; under setting [10], 101 % of control; (dose: 12.5 mg/kg/injection, schedule: Q04DX003 (ip), vehicle: saline with Tween-80) 111 % of control; under setting [11], 97 % of control; (dose: 25.0 mg/kg/injection, schedule: Q04DX003 (ip), vehicle: saline with Tween-80) 107 % of control; under setting [15], 115 % of control. The T/C reads like this: under setting [16], 107 % of control; under setting [12], 111 % of control.
For the compound `COCCn1c2c(nc(C(=O)OC)/c1=N\C(=O)Nc1ccccc1)CCCC2`, the T/C runs as follows: under setting [15], 109 % of control; under setting [7], 106 % of control; under setting [8], 106 % of control.
Take `OCn1cnc2c(SC3CCCC3)ncnc21`: where the note is “dose: 75.0 mg/kg/injection, schedule: Q01DX009 (ip), vehicle: Klucel (hydroxypropylcellulose) (HPC)”, the T/C is 120 % of control.
For the compound `O=C(NCCCCOc1ccc([N+](=O)[O-])cc1Cl)c1ccc(S(=O)(=O)F)cc1`, the T/C runs as follows: under setting [16], 103 % of control; under setting [12], 96 % of control and 112 % of control; under setting [13], 106 % of control; under setting [14], 90 % of control and 103 % of control.
Turning to `CC1(C)N=C(N)N=C(N)N1c1ccc2ccccc2c1`, the T/C (dose: 12.5 mg/kg/injection, schedule: Q01DX009 (ip), vehicle: saline) is 120 % of control; the T/C under setting [6] was 160 % of control; the T/C under setting [2] is 100 % of control.
With `Nc1nc(N)c2cc(CNc3ccc(C(=O)NC(CC(=O)O)CC(=O)O)cc3)cnc2n1`, the T/C is 101 % of control under setting [12]; 113 % of control under setting [13]; 86 % of control (dose: 300.0 mg/kg/injection, schedule: Q04DX003 (ip), vehicle: saline with Tween-80).
Regarding `CCOCCN1CCN(CCCN2c3ccccc3Sc3ccc(C(F)(F)F)cc32)CC1`, the T/C (dose: 6.25 mg/kg/injection, schedule: Q04DX003 (ip), vehicle: saline) is 107 % of control and 112 % of control; the T/C under setting [4] was 116 % of control; the T/C under setting [2] is 101 % of control.
